ChEMBL document CHEMBL4414595, “Tripterfordins A-O, Dihydro-β-agarofuran Sesquiterpenoids from the Leaves of Tripterygium wilfordii” (J Nat Prod, 2019)
pIC50: −log10 of the molar value.

System: RAW264.7
Test: Anti-inflammatory activity in mouse RAW264.7 cells assessed as inhibition of LPS-induced NO production by Griess assay
Assay type: functional, cell-based

pIC50 | Structure (SMILES)
4.37 | C[C@]12CCC(=O)C=C1CC[C@@H]1[C@@H]2[C@@H](O)C[C@@]2(C)[C@H]1CC[C@]2(O)C(=O)COC(=O)CCC(=O)O [HYDROCORTISONE SODIUM SUCCINATE]
< 4.00 | CC(=O)OC[C@]12[C@H](OC(C)=O)[C@@H](OC(C)=O)[C@@H]3[C@@H](O)[C@]1(OC3(C)C)[C@H](C)[C@@H](O)[C@H](OC(C)=O)[C@@H]2OC(=O)/C=C/c1ccccc1
4.55 | CC(=O)OC[C@]12[C@H](OC(C)=O)[C@@H](OC(C)=O)[C@@H]3[C@@H](O)[C@]1(OC3(C)C)[C@H](C)C[C@H](OC(C)=O)[C@@H]2OC(=O)/C=C\c1ccccc1
4.62 | CC(=O)OC[C@]12[C@H](OC(C)=O)[C@@H](OC(C)=O)[C@@H]3[C@@H](O)[C@]1(OC3(C)C)[C@@](C)(O)C[C@H](OC(C)=O)[C@@H]2OC(=O)/C=C/c1ccccc1
4.92 | CC(=O)OC[C@]12[C@H](OC(C)=O)[C@@H](OC(C)=O)[C@@H]3[C@@H](O)[C@]1(OC3(C)C)[C@H](C)C[C@H](OC(C)=O)[C@@H]2OC(=O)/C=C/c1ccccc1
< 4.00 | CC(=O)OC[C@]12[C@H](OC(C)=O)[C@@H](OC(C)=O)[C@@H]3C[C@]1(OC3(C)C)[C@H](C)C[C@H](OC(C)=O)[C@@H]2OC(=O)/C=C/c1ccccc1
< 4.00 | CC(=O)OC[C@]12[C@H](OC(C)=O)[C@@H](O)[C@@H]3[C@@H](O)[C@]1(OC3(C)C)[C@@](C)(O)C[C@H](O)[C@@H]2OC(=O)/C=C/c1ccccc1
< 4.00 | CC(=O)OC[C@]12[C@H](OC(C)=O)C(=O)[C@@H]3C[C@]1(OC3(C)C)[C@@](C)(O)C[C@H](OC(C)=O)[C@@H]2OC(=O)/C=C/c1ccccc1
< 4.00 | CC(=O)O[C@H]1C[C@@H](C)[C@]23OC(C)(C)[C@H]([C@H](O)[C@@H](OC(=O)c4ccccc4)[C@]2(CO)[C@H]1OC(=O)/C=C/c1ccccc1)[C@H]3OC(C)=O
4.27 | CC(=O)OC[C@]12[C@H](OC(C)=O)[C@@H](OC(C)=O)[C@@H]3[C@@H](O)[C@]1(OC3(C)C)[C@@](C)(O)[C@@H](O)[C@H](OC(C)=O)[C@@H]2OC(=O)/C=C/c1ccccc1
4.51 | CC(=O)OC[C@]12[C@H](OC(C)=O)[C@@H](OC(C)=O)[C@@H]3[C@@H](O)[C@]1(OC3(C)C)[C@@](C)(O)C[C@H](OC(C)=O)[C@@H]2OC(=O)/C=C\c1ccccc1
< 4.00 | CC(=O)OC[C@]12[C@H](OC(C)=O)[C@@H](OC(C)=O)[C@@H]3[C@@H](OC(C)=O)[C@]1(OC3(C)C)[C@@](C)(O)C[C@H](OC(C)=O)[C@@H]2OC(=O)/C=C\c1ccccc1
< 4.00 | CC(=O)OC[C@]12[C@H](OC(C)=O)[C@@H](OC(C)=O)[C@@H]3C[C@]1(OC3(C)C)[C@H](C)C[C@H](OC(C)=O)[C@@H]2OC(=O)/C=C\c1ccccc1
< 4.00 | CC(=O)OC[C@]12[C@H](OC(C)=O)[C@@H](OC(C)=O)[C@@H]3C[C@]1(OC3(C)C)[C@@](C)(O)C[C@H](OC(C)=O)[C@@H]2OC(=O)/C=C/c1ccccc1
< 4.00 | CC(=O)OC[C@]12[C@H](OC(C)=O)C(=O)[C@@H]3[C@@H](O)[C@]1(OC3(C)C)[C@@](C)(O)C[C@H](OC(C)=O)[C@@H]2OC(=O)/C=C/c1ccccc1
4.72 | CC(=O)OC[C@]12[C@H](OC(C)=O)[C@@H](OC(C)=O)[C@@H]3C[C@]1(OC3(C)C)[C@@](C)(O)C[C@H](OC(C)=O)[C@@H]2OC(=O)/C=C\c1ccccc1
